The numbers were not newly measured in patent US12420242B1 (KING SAUD UNIVERSITY, priority 2025, dated 2025), which cites them from elsewhere.

≈ marks a conversion by molar mass, not a printed value. Where two headings read alike, the source gives them in different places.

Assay in series [1]: not given
This is another data set of the same source.

For the compound `O` [water], the Density is 1.0 g/mL. Also, where the note is “Table 1”, the Density is 1.00 g · cm^−3.

In the case of `CCCCCCC` [n-heptane], the Density (Table 1) was 0.68 g · cm^−3. For the same compound, the solubility in water in series [1] and in series [1] (Table 1) was 2 µg/mL (≈ 20 µM) each time.

`c1ccsc1` [thiophene]: the Density is on record as 1.05 g/mL. The Density (Table 1) is 1.05 g · cm^−3.
